# Reference: patent EP1561465A2, “Methods of use of fluoroquinolone compounds against bacteria” (LG Life Sciences, Ltd., priority 1999, dated 2001)
# Like-named read-outs stand apart in the source and are kept apart here.
# What was measured:
# [1] = system: Escherichia coli; assay: MIC by agar dilution (NCCLS), 322 nosocomial Gram negative isolates, Athens 1998; format: cell-based; conditions: n = 57 isolates
# [2] = system: Streptococcus pyogenes; assay: MIC by NCCLS reference broth microdilution, 450 respiratory tract pathogens; format: cell-based; conditions: Streptococcus pyogenes
# [3] = system: Morganella morganii; assay: MIC by NCCLS broth microdilution, 1100 Japanese clinical isolates 1997-1998; format: cell-based; conditions: Morganella morganii (n=40)
# [4] = system: Staphylococcus aureus; assay: microbe, parasite or virus in culture; format: cell-based; conditions: for MIC90: read-out: MIC90
# [5] = system: Hafnia alvei; assay: MIC by agar dilution (NCCLS M7-A4), 288 enteropathogenic isolates, gemifloxacin and 15 other antimicrobials; format: cell-based; conditions: Hafnia alvei N= 32
# [6] = system: Enterobacter cloacae; assay: MIC by NCCLS broth microdilution, 1100 Japanese clinical isolates 1997-1998; format: cell-based; conditions: Enterobacter cloacae (n=40)
# [7] = system: Salmonella spp.; assay: MIC by agar dilution (NCCLS M7-A4), 288 enteropathogenic isolates, gemifloxacin and 15 other antimicrobials; format: cell-based
# [8] = system: Campylobacter jejuni; assay: MIC by agar dilution (NCCLS M7-A4), 5% sheep blood, microaerophilic 48 h; format: cell-based; conditions: Campylobacter jejuni (n=91)
# [9] = MIC by agar dilution, Brucella HK agar, 491 anaerobic clinical isolates; format: cell-based; conditions: clinical isolates of Bacteroides spp., Prevotella bivia and other Prevotella spp.
# [10] = system: Streptococcus pneumoniae; assay: MIC by E-test (broth microdilution for gemifloxacin), 107 pneumococcal carrier isolates, Athens 1998; format: cell-based; conditions: for MIC Range: in µg/mL (unit assumed); for MIC50 / MIC90: Streptococcus pneumoniae; for MIC90: read-out: MIC90
# Protocol: Susceptibility testing was performed by agar dilution or epsilometer method (E-test), as recommended by the NCCLS. […] The susceptibility profiles of the strains were assessed using the Epsilometer method (E-test). The isolates were subdivided into two groups according to their penicillin susceptibility patterns (penicillin-susceptible and penicillin-intermediate.
# [11] = system: Moraxella catarrhalis; assay: MIC by NCCLS reference broth microdilution, 450 respiratory tract pathogens; format: cell-based
# [12] = system: Enterococcus faecalis; assay: MIC by agar macrodilution (NCCLS), 373 Gram positive isolates, Athens 1998; format: cell-based
# [13] = system: Enterobacter aerogenes; assay: MIC by NCCLS broth microdilution, 1100 Japanese clinical isolates 1997-1998; format: cell-based; conditions: Enterobacter aerogenes (n=35)
# [14] = system: Mycobacterium tuberculosis (MTB); assay: MIC by proportions method (NCCLS M24-T, 1995), 82 MTB strains; format: cell-based; conditions: compared with the other quinolones
# [15] = system: Aeromonas spp.; assay: MIC by agar dilution (NCCLS M7-A4), 288 enteropathogenic isolates, eight quinolones; format: cell-based; conditions: Aeromonas spp. (n = 16)
# [16] = system: Streptococcus pneumoniae; assay: MIC by broth microdilution (NCCLS), dried MicroScan panels, clinical isolates 1998-1999; format: cell-based; conditions: for MIC90: Streptococcus pneumoniae
# [17] = system: Enterococcus faecalis; assay: MIC by agar dilution (NCCLS), 411 isolates Buenos Aires 1998-99; format: cell-based; conditions: Enterococcus faecalis (n = 48)
# [18] = system: Shigella spp.; assay: MIC by agar dilution (NCCLS M7-A4), 288 enteropathogenic isolates, gemifloxacin and 15 other antimicrobials; format: cell-based; conditions: Shigella spp. N= 21
# Method in brief: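 Agar dilution with ~10^4 cfu/spot inoculum; plates incubated aerobically at 35 °C for 24 h, except C. jejuni, held microaerophilically for 48 h. MIC taken as lowest antibiotic concentration with no visible growth.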
# [19] = system: Salmonella spp.; assay: MIC by NCCLS broth microdilution, 1100 Japanese clinical isolates 1997-1998; format: cell-based; conditions: Salmonella spp. (n=29)
# [20] = system: Campylobacter jejuni; assay: MIC by agar dilution (NCCLS M7-A4), 288 enteropathogenic isolates, gemifloxacin and 15 other antimicrobials; conditions: for MIC: Campylobacter jejuni
# [21] = Streptococcus pyogenes (n = 100)
# [22] = erythromycin resistant C phenotype [MLSB] (n = 20)
# [23] = erythromycin resistant I phenotype [MLSB] (n = 20)
# [24] = erythromycin resistant M phenotype (n = 20)
# [25] = Staphylococcus aureus, Methicillin-susceptible (9)
# [26] = 24 h, read-out: MIC (mg/L) Range
# [27] = Penicillin-intermediate S. pneumoniae (n = 24), E-test
# [28] = Penicillin-susceptible S. pneumoniae (n = 107), E-test
# [29] = Streptococcus pneumoniae (302 isolates)
compound,measurement,setting,value
"N[C@@H]1[C@H]2CN(c3nc4c(cc3F)c(=O)c(C(=O)O)cn4-c3ccc(F)cc3F)C[C@@H]12 [Trovafloxacin, trovafloxacin]",MIC50,[1]; Escherichia coli,0.06 µg/mL
same,MIC90,[1]; Escherichia coli,0.25 µg/mL
same,MIC Range,[1],≤0.03 to 64 µg/mL
same,MIC,[2]; [21],0.03 to 1 µg/mL
same,MIC50,[2]; [21],0.12 µg/mL
same,MIC90,[2]; [21],0.25 µg/mL
same,MIC,[2]; [22],0.03 to 0.12 µg/mL
same,MIC50,[2]; [22],0.06 µg/mL
same,MIC90,[2]; [22],0.12 µg/mL
same,MIC,[2]; [23],0.06 to 0.5 µg/mL
same,MIC50,[2]; [23],0.12 µg/mL
same,MIC90,[2]; [23],0.5 µg/mL
same,MIC,[2]; [24],0.06 to 0.5 µg/mL
same,MIC50,[2]; [24],0.12 µg/mL
same,MIC90,[2]; [24],0.12 µg/mL
same,MIC,[2]; fully susceptible (n = 20),0.06 to 1 µg/mL
same,MIC50,[2]; fully susceptible (n = 20),0.12 µg/mL
same,MIC90,[2]; fully susceptible (n = 20),0.25 µg/mL
same,MIC,[2]; multi-drug resistant (n = 20),0.12 to 0.25 µg/mL
same,MIC50,[2]; multi-drug resistant (n = 20),0.12 µg/mL
same,MIC90,[2]; multi-drug resistant (n = 20),0.25 µg/mL
same,MIC Range,[3],0.063 to 32 µg/mL
same,MIC50,[3]; read-out: MIC50,0.25 µg/mL
same,MIC90,[3]; read-out: MIC90,1 µg/mL
same,MIC Range,[4]; Methicillin-resistant (38),0.031 to 16 µg/mL
same,MIC Range,[4]; Methicillin-susceptible (9),0.031 to 0.5 µg/mL
same,MIC90,"[4]; Staphylococcus aureus, Methicillin-resistant (38)",16 µg/mL
same,MIC50,[4]; [25],0.031 µg/mL
same,MIC90,[4]; [25],0.5 µg/mL
same,MIC,"[4]; Staphylococcus aureus, S. aureus KU2240, mutant type Wild (wild strain)",0.063 µg/mL
same,MIC,"[4]; Staphylococcus aureus, S. aureus KU2241, mutant type NorA (efflux-mediated quinolone resistant)",0.063 µg/mL
same,MIC,"[4]; Staphylococcus aureus, S. aureus KU2242, mutant type T (DNA topoisomerase IV)",0.25 µg/mL
same,MIC,"[4]; Staphylococcus aureus, S. aureus KU2243, mutant type G+T (DNA gyrase and topoisomerase IV)",32 µg/mL
same,MIC,"[4]; Staphylococcus aureus, S. aureus KU2244, mutant type G (DNA gyrase)",0.063 µg/mL
same,MIC,"[4]; Staphylococcus aureus, S. aureus KU2246, mutant type T (DNA topoisomerase IV)",0.25 µg/mL
same,MIC,[5]; [26],0.03 to 0.12 mg/L
same,MIC,[5]; read-out: MIC (mg/L) 50%,0.06 mg/L
same,MIC,[5]; read-out: MIC (mg/L) 90%,0.06 mg/L
same,MIC50,[6],0.032 µg/mL
same,MIC90,[6],1 µg/mL
same,MIC Range,[6],≤0.008 to 2 µg/mL
same,MIC,"[7]; S. hadar(2), isolates with MICs for ciprofloxacin ≥[…], read-out: MIC",0.5 mg/L
same,MIC,"[7]; S. newport(1), isolate with MIC for ciprofloxacin ≥[…], read-out: MIC",0.5 mg/L
same,MIC,"[7]; S. virchow(2), isolates with MICs for ciprofloxacin ≥[…], read-out: MIC",0.25 mg/L
same,MIC (mg/L) Range,[7]; Salmonella spp. N= 106,≤0.015 to 1 mg/L
same,MIC,"[7]; Salmonella, S. tshiongwe(1), isolate with MIC for ciprofloxacin ≥[…], read-out: MIC",1 mg/L
same,MIC,"[7]; Salmonella, read-out: MIC (mg/L) 50%, Salmonella spp. N= 106",0.06 mg/L
same,MIC,"[7]; Salmonella, read-out: MIC (mg/L) 90%, Salmonella spp. N= 106",0.25 mg/L
same,% Susceptible,[8],31.86%
same,MIC50,[8],8 µg/mL
same,MIC90,[8],8 µg/mL
same,MIC Range,[8],≤0.015 to 32 µg/mL
same,MIC90,[9],1 to 8 µg/mL
same,MIC Range,[10]; [27],0.003-1
same,MIC Range,[10]; [28],0.008-1
same,MIC50,[10],0.125 µg/mL
same,MIC90,[10]; [27],0.38 µg/mL
same,MIC50,"[10]; Penicillin-susceptible S. pneumoniae (n = 107), E-test, read-out: MIC50",0.094 µg/mL
same,MIC90,[10]; [28],0.19 µg/mL
same,MIC,[11]; Moraxella catarrhalis (n = 50),0.00375 to 0.06 µg/mL
same,MIC50,[11]; Moraxella catarrhalis (n = 50),0.015 µg/mL
same,MIC90,[11]; Moraxella catarrhalis (n = 50),0.06 µg/mL
same,MIC,[11]; β-lactamase negative (n = 13),0.00375 to 0.06 µg/mL
same,MIC50,[11]; β-lactamase negative (n = 13),0.0075 µg/mL
same,MIC90,[11]; β-lactamase negative (n = 13),0.036 µg/mL
same,MIC,[11]; β-lactamase positive (n = 37),0.00375 to 0.06 µg/mL
same,MIC50,[11]; β-lactamase positive (n = 37),0.015 µg/mL
same,MIC90,[11]; β-lactamase positive (n = 37),0.03 µg/mL
same,MIC distribution (µg/ml) 0.06,[12],1
same,MIC distribution (µg/ml) 0.125,[12],0
same,MIC distribution (µg/ml) 0.25,[12],6
same,MIC distribution (µg/ml) 0.5,[12],21
same,MIC distribution (µg/ml) 1,[12],23
same,MIC distribution (µg/ml) 2,[12],6
same,MIC distribution (µg/ml) 4,[12],0
same,MIC distribution (µg/ml) 8,[12],3
same,MIC distribution (µg/ml) 16,[12],3
same,MIC distribution (µg/ml) ≤0.015,[12],0
same,MIC distribution (µg/ml) ≥32,[12],17
same,MIC50,"[12]; Enterococcus faecalis, n = 81 isolates, read-out: MIC50",1 µg/mL
same,MIC90,"[12]; Enterococcus faecalis, n = 81 isolates, read-out: MIC90",≥ 32 µg/mL
same,MIC Range,[13],≤0.008 to 0.125 µg/mL
same,MIC50,[13]; Klebsiella aerogenes,0.032 µg/mL
same,MIC90,[13]; Klebsiella aerogenes,0.063 µg/mL
same,in vitro activity against MTB,[14],lower in vitro activity
same,% Susceptible,[15],100%
same,MIC50,[15],≤ 0.015 µg/mL
same,MIC90,[15],0.03 µg/mL
same,MIC Range,[15],≤0.015 to 0.25 µg/mL
same,MIC50,[16]; [29],0.12 µg/mL
same,MIC Range,[16]; [29],≤0.015 to 1 µg/mL
same,MIC90,[16]; Erythromycin-resistant (86),0.25 µg/mL
same,MIC90,[16]; Erythromycin-sensitive (216),0.25 µg/mL
same,MIC90,[16]; Penicillin-intermediate (124),0.25 µg/mL
same,MIC90,[16]; Penicillin-resistant (80),0.25 µg/mL
same,MIC90,[16]; Penicillin-sensitive (98),0.25 µg/mL
same,MIC90,[16]; [29],0.25 µg/mL
same,MIC90,[17],8 µg/mL
same,MIC Range,[17],≤0.004 to 16 µg/mL
same,MIC,[18]; [26],≤ 0.015 mg/L
same,MIC,[18]; read-out: MIC (mg/L) 50%,≤ 0.015 mg/L
same,MIC,[18]; read-out: MIC (mg/L) 90%,≤ 0.015 mg/L
same,MIC50,[19],0.032 µg/mL
same,MIC90,[19],0.063 µg/mL
same,MIC Range,[19],0.016 to 0.063 µg/mL
same,MIC (mg/L) Range,[20]; Campylobacter jejuni N= 91,≤0.015 to 32 mg/L
same,MIC,[20]; read-out: MIC (mg/L) 50%,8 mg/L
same,MIC,[20]; read-out: MIC (mg/L) 90%,8 mg/L
